Key:
Format in all cases: in vivo
[1] = system: waterhemp (common waterhemp, Amaranthus rudis); assay: Test D pre-/postemergence plant response; conditions: Postemergence; for Waterhemp plant response rating: scale 0 to 100 (0 no effect, 100 complete control); for Plant response rating, Waterhemp: scale 0 to 100, 0 no effect, 100 complete control
Text: (§1) Seeds of plant species selected from blackgrass (Alopecurus myosuroides), Italian ryegrass (Lolium multiflorum), winter wheat (Triticum aestivum), galium (catchweed bedstraw, Galium aparine), corn (Zea mays), large (Lg) crabgrass (Digitaria sanguinalis), giant foxtail (Setaria faberii), johnsongrass (Sorghum halepense), lambsquarters (Chenopodium album), morningglory (Ipomoea coccinea), yellow nutsedge (Cyperus esculentus), pigweed (Amaranthus retroflexus), ragweed (common ragweed, Ambrosia elatior), soybean (Glycine max), bamyardgrass (Echinochloa crus-galli), oilseed rape (Brassica napus), waterhemp (common waterhemp, Amaranthus rudis), and velvetleaf (Abutilon theophrasti) were planted into a blend of loam soil and sand and treated preemergence with test chemicals formulated in a non-phytotoxic solvent mixture which included a surfactant. At the same time, plants selected from these crop and weed species and also kochia (Kochia scoparia), wild oat (Avena fatua), and chickweed (common chickweed, Stellaria media) were planted in pots containing Redi-Earth® planting medium (Scotts Company, 14111 Scottslawn Road, Marysville, Ohio 43041) comprising spaghnum peat moss, vermiculite, wetting agent and starter nutrients and treated with postemergence applications of test chemicals formulated in the same manner. Plants ranged in height from 2 to 18 cm (1- to 4-leaf stage) for postemergence treatments. Treated plants and controls were maintained in a greenhouse for 13 to 15 days, after which time all species were compared to controls and visually evaluated. Plant response ratings, summarized in Table D, are based on a scale of 0 to 100 where 0 is no effect and 100 is complete control. A dash (-) response means no test result.

[2] = system: blackgrass (Alopecurus myosuroides); assay: Test D pre-/postemergence plant response; conditions: Postemergence; for Blackgrass plant response rating: scale 0 to 100 (0 no effect, 100 complete control); for Plant response rating, Blackgrass: scale 0 to 100, 0 no effect, 100 complete control
Text: as §1

corn (Zea mays) [3] = assay: Test D pre-/postemergence plant response; conditions: Postemergence; for Corn plant response rating: scale 0 to 100 (0 no effect, 100 complete control); for Plant response rating, Corn: scale 0 to 100, 0 no effect, 100 complete control
Text: as §1

[4] = system: giant foxtail (Setaria faberii); assay: Test D pre-/postemergence plant response; conditions: Postemergence; for Foxtail, Giant plant response rating: scale 0 to 100 (0 no effect, 100 complete control); for Plant response rating, Foxtail, Giant: scale 0 to 100, 0 no effect, 100 complete control
Text: as §1

[5] = system: morningglory (Ipomoea coccinea); assay: Test D pre-/postemergence plant response; conditions: Postemergence; for Morningglory plant response rating: scale 0 to 100 (0 no effect, 100 complete control); for Plant response rating, Morningglory: scale 0 to 100, 0 no effect, 100 complete control
Text: as §1

[6] = system: pigweed (Amaranthus retroflexus); assay: Test D pre-/postemergence plant response; conditions: Postemergence; for Pigweed plant response rating: scale 0 to 100 (0 no effect, 100 complete control); for Plant response rating, Pigweed: scale 0 to 100, 0 no effect, 100 complete control
Text: as §1

[7] = system: lambsquarters (Chenopodium album); assay: Test D pre-/postemergence plant response; conditions: Postemergence; for Lambsquarters plant response rating: scale 0 to 100 (0 no effect, 100 complete control); for Plant response rating, Lambsquarters: scale 0 to 100, 0 no effect, 100 complete control
Text: as §1

[8] = system: ragweed (common ragweed, Ambrosia elatior); assay: Test D pre-/postemergence plant response; conditions: Postemergence; for Ragweed plant response rating: scale 0 to 100 (0 no effect, 100 complete control); for Plant response rating, Ragweed: scale 0 to 100, 0 no effect, 100 complete control
Text: as §1

[9] = system: galium (catchweed bedstraw, Galium aparine); assay: Test D pre-/postemergence plant response; conditions: Postemergence; for Galium plant response rating: scale 0 to 100 (0 no effect, 100 complete control); for Plant response rating, Galium: scale 0 to 100, 0 no effect, 100 complete control
Text: as §1

[10] = system: barnyardgrass (Echinochloa crus-galli); assay: Test D pre-/postemergence plant response; conditions: Postemergence; for Barnyardgrass plant response rating: scale 0 to 100 (0 no effect, 100 complete control); for Plant response rating, Barnyardgrass: scale 0 to 100, 0 no effect, 100 complete control
Text: as §1

[11] = system: Italian ryegrass (Lolium multiflorum); assay: Test D pre-/postemergence plant response; conditions: Postemergence; for Ryegrass, Italian plant response rating: scale 0 to 100 (0 no effect, 100 complete control); for Plant response rating, Ryegrass, Italian: scale 0 to 100, 0 no effect, 100 complete control
Text: as §1

corn (Zea mays) [12] = assay: Test B pre-/postemergence plant response; conditions: 0 to 100 scale, 0 no effect, 100 complete control
Method in brief: (§2)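 Visual injury scores on a 0–100 scale (100 = complete control) relative to untreated plants, taken about 10 days post-treatment in greenhouse. Treatments were a directed preemergence soil spray and a postemergence spray at one- to two-leaf stage, using surfactant-containing solvent formulation.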

[13] = system: giant foxtail (Setaria faberii); assay: Test B pre-/postemergence plant response
Method in brief: as §2

[14] = system: pigweed (Amaranthus retroflexus); assay: Test B pre-/postemergence plant response
Method in brief: as §2

[15] = system: wheat (Triticum aestivum); assay: Test B pre-/postemergence plant response; conditions: 0 to 100 scale, 0 no effect, 100 complete control
Method in brief: as §2

[16] = system: barnyardgrass (Echinochloa crus-galli); assay: Test B pre-/postemergence plant response
Method in brief: as §2

[17] = 31 g ai/ha, Postemergence, 0 to 100 scale, 0 no effect, 100 complete control
[18] = 125 g ai/ha, postemergence, 0 to 100 scale, 0 no effect, 100 complete control
[19] = Preemergence, 31 g ai/ha, 0 to 100 scale (0 no effect, 100 complete control)
[20] = Preemergence, 125 g ai/ha, 0 to 100 scale where 0 is no effect and 100 is complete control

For `Fc1ccc(Oc2ncc(Cl)cn2)c(-c2cc(C(F)F)on2)c1Cl` [Compound 96], the “Waterhemp plant response rating” value ([1]; 16 g ai/ha) was 85, the “Waterhemp plant response rating” value ([1]; 31 g ai/ha) was 95 and the “Plant response rating, Waterhemp” value ([1]; 62 g ai/ha) was 98. The “Plant response rating, Waterhemp” value ([1]; 125 g ai/ha) was 100, the “Blackgrass plant response rating” value ([2]; 16 g ai/ha) was 0 and the “Blackgrass plant response rating” value ([2]; 31 g ai/ha) was 10. The “Plant response rating, Blackgrass” value ([2]; 62 g ai/ha) was 10, the “Plant response rating, Blackgrass” value ([2]; 125 g ai/ha) was 20 and the “Corn plant response rating” value (corn (Zea mays) [3]; 16 g ai/ha) was 5. The “Corn plant response rating” value (corn (Zea mays) [3]; 31 g ai/ha) was 15, the “Plant response rating, Corn” value (corn (Zea mays) [3]; 62 g ai/ha) was 5 and the “Plant response rating, Corn” value (corn (Zea mays) [3]; 125 g ai/ha) was 5. For the same molecule, the “Foxtail, Giant plant response rating” value ([4]; 16 g ai/ha) was 0, the “Foxtail, Giant plant response rating” value ([4]; 31 g ai/ha) was 5 and the “Plant response rating, Foxtail, Giant” value ([4]; 62 g ai/ha) was 10. For the same molecule, the “Plant response rating, Foxtail, Giant” value ([4]; 125 g ai/ha) was 10, the “Morningglory plant response rating” value ([5]; 16 g ai/ha) was 85 and the “Morningglory plant response rating” value ([5]; 31 g ai/ha) was 40. For the same molecule, the “Plant response rating, Morningglory” value ([5]; 62 g ai/ha) was 40, the “Plant response rating, Morningglory” value ([5]; 125 g ai/ha) was 30 and the “Pigweed plant response rating” value ([6]; 16 g ai/ha) was 98. The “Pigweed plant response rating” value ([6]; 31 g ai/ha) was 95, the “Plant response rating, Pigweed” value ([6]; 62 g ai/ha) was 98 and the “Plant response rating, Pigweed” value ([6]; 125 g ai/ha) was 98. The “Lambsquarters plant response rating” value ([7]; 16 g ai/ha) was 65, the “Lambsquarters plant response rating” value ([7]; 31 g ai/ha) was 65 and the “Plant response rating, Lambsquarters” value ([7]; 62 g ai/ha) was 90. The “Plant response rating, Lambsquarters” value ([7]; 125 g ai/ha) was 95, the “Ragweed plant response rating” value ([8]; 16 g ai/ha) was 0 and the “Ragweed plant response rating” value ([8]; 31 g ai/ha) was 10. The “Plant response rating, Ragweed” value ([8]; 62 g ai/ha) was 10, the “Plant response rating, Ragweed” value ([8]; 125 g ai/ha) was 40 and the “Galium plant response rating” value ([9]; 16 g ai/ha) was 70. For the same molecule, the “Galium plant response rating” value ([9]; 31 g ai/ha) was 90, the “Plant response rating, Galium” value ([9]; 62 g ai/ha) was 80 and the “Plant response rating, Galium” value ([9]; 125 g ai/ha) was 98. For the same molecule, the “Barnyardgrass plant response rating” value ([10]; 16 g ai/ha) was 0, the “Barnyardgrass plant response rating” value ([10]; 31 g ai/ha) was 0 and the “Plant response rating, Barnyardgrass” value ([10]; 62 g ai/ha) was 5. The “Plant response rating, Barnyardgrass” value ([10]; 125 g ai/ha) was 5, the “Ryegrass, Italian plant response rating” value ([11]; 16 g ai/ha) was 0 and the “Ryegrass, Italian plant response rating” value ([11]; 31 g ai/ha) was 5. For the same molecule, the “Plant response rating, Ryegrass, Italian” value ([11]; 62 g ai/ha) was 10, the “Plant response rating, Ryegrass, Italian” value ([11]; 125 g ai/ha) was 10 and the “Plant response rating, Corn” value (corn (Zea mays) [12]; 31 g ai/ha, Postemergence) was 0. The “Plant response rating, Corn” value (corn (Zea mays) [12]; 125 g ai/ha, postemergence) was 20, the “Plant response rating, Foxtail, Giant” value [13, 17] was 0 and the “Plant response rating, Foxtail, Giant” value [13, 18] was 50. For the same molecule, the “Foxtail, Giant plant response rating” value [13, 19] was 10, the “Plant response rating, Foxtail, Giant” value [13, 20] was 40 and the “Plant response rating, Pigweed” value [14, 17] was 100. The “Plant response rating, Pigweed” value [14, 18] was 100, the “Pigweed plant response rating” value [14, 19] was 90 and the “Plant response rating, Pigweed” value [14, 20] was 100. The “Plant response rating, Wheat” value ([15]; 31 g ai/ha, Postemergence) was 0, the “Plant response rating, Wheat” value ([15]; 125 g ai/ha, postemergence) was 0 and the “Plant response rating, Barnyardgrass” value [16, 17] was 10. The “Plant response rating, Barnyardgrass” value [16, 18] was 30, the “Barnyardgrass plant response rating” value [16, 19] was 0 and the “Plant response rating, Barnyardgrass” value [16, 20] was 20.
